Measured values reported in patent US9585861B1, “Method for treating a cancer with a mixed ligand gold(III) complexes as anti-cancer agents” (KING FAHD UNIVERSITY OF PETROLEUM AND MINERALS, priority 2015, dated 2017).
pIC50: −log10 of the molar value. Read-outs that look alike come from different tables or passages of the source.

Tests used:
[1] = system: human prostate PC3 cancer cells; experiment: MTT assay, in vitro cytotoxicity / cell growth inhibition on PC3 cells; assay type: cell-based; settings: for time dependent antiproliferative effect: 10 μM, 24 h and 72 h; for pIC50: 72 h exposure, MTT
Description: (§1) Human gastric SGC7901 cancer and prostate PC3 cancer cell lines were provided by American Type Culture Collection (ATCC). Cells were cultured in Dulbecco's Modified Eagle Medium (DMEM) supplemented with 10% fetal calf serum (FCS), penicillin (100 kU L^−1) and streptomycin (0.1 g L^−1) at 37° C. in a 5% CO2-95% air atmosphere. MTT (3-(4,5-Dimethylthiazol-2-yl)-2,5-diphenyltetrazolium bromide, a yellow tetrazole) was purchased from Sigma Chemical Co, St. Louis, Mo., USA.
(§2) An MTT assay was used to obtain the number of living cells in the sample. Human gastric cancer SGC7901 and prostate cancer PC3 cells were seeded on 96-well plates at a predetermined optimal cell density, i.e. ca 6000 cells/100 μL per well in 96-well plates, to ensure exponential growth in the duration of the assay. After 24 h pre-incubation, the growth medium was replaced with the experimental medium containing the appropriate drug, using one of 1,2-diaminocyclohexane(1,3-propylenediamine)gold(III) chloride compounds 1, 2 and 3 or a control using water. Six duplicate wells were set up for each sample, and cells untreated with drug served as a control. In one set of culture plates, human gastric cancer SGC7901 and human prostate PC3 cells were treated with 10 μM compounds 1, 2 and 3 as the drug and the control (water) for 24, 48 and 72 h. In other sets, the compounds 1, 2 and 3 with different concentration, i.e. 10, 20 and 30 μM, were employed to determine the growth inhibitory effect for both PC3 and SGC7901 cells separately. After incubation, 10 μL MTT (6 g/L, Sigma) was added to each well and the incubation was continued for 4 h at 37° C. After removal of the medium, MTT stabilization solution [dimethylsulfoxide (DMSO):ethanol=1:1] was added to each well, and shaken for 10 min until all crystals were dissolved. Then, the optical density was detected in a micro plate reader at 550 nm wavelength using an Enzyme-Linked Immuno-Sorbent Assay (ELISA) reader. After being treated with the 1,2-diaminocyclohexane(1,3-propylenediamine)gold(III) chloride compounds 1, 2 and 3, the cell viability was examined by MTT assay. Each assay was performed in triplicate. […] These cells were treated with various concentrations of compounds 1, 2 and 3 for 24-72 h.
(§3) Human gastric SGC7901 cells and prostate PC3 cells were incubated with these compounds at fixed concentrations or with water as a control to assess the inhibitory effect on cell growth. […] The cell survival versus drug concentration is plotted. Cytotoxicity was evaluated in vitro with reference to the IC50 value. The half maximal inhibitory concentration (IC50) is a measure of the effectiveness of a compound to inhibit biological or biochemical functions. According to the FDA, IC50 represents the concentration of a drug/compound/complex that is required for 50% inhibition in vitro. It is evaluated from the survival curves as the concentration needed for a 50% reduction of survival. IC50 values are expressed in μM.
(§4) The in vitro cytotoxic effect of mixed ligand gold(III) diamine complexes against androgen-resistant prostate PC3 and human gastric SGC7901 cancer cells were studied using MTT assay. […] For that reason, we used different concentrations and a 3-day exposure protocol to determine the IC50 values for all three complexes. The in vitro cytotoxicity in terms of IC50 values of cisplatin for PC3 and SGC7901 cells was included for a comparison.

[2] = Cyclic voltammetry in reference phosphate buffer; assay type: physicochemical; settings: 1.0 mM, phosphate buffer pH 7.4, platinum electrode, 50 mV/s, room temperature
Description: The electrochemical experiments performed at room temperature using a potentiostat (SP-300, BioLogic Science Instruments) controlled by EC-Lab v10.34 software package. The electrochemical experiments were performed at room temperature. All the measurements were performed on solutions deaerated by bubbling ultra-pure nitrogen for 15 min. The values of potential here reported were measured against a saturated calomel electrode (SCE). The cyclic voltammetry of the compounds 1, 2 and 3 were measured at scan rate of 50 mV/s on a reference buffer (40 mM phosphate, 4 mM NaCl, pH 7.4) using platinum as working electrode and graphite as a counter electrode with a concentration of 1.0 mM at room temperature. Ferrocene was used as pseudo reference to calibrate the working electrode. The couple Fe^III/II formal potential of ferrocene occur at E°′=+0.44 V (vs SCE) in 0.1 M Bu4NPF6 solution in acetonitrile which is similar to the report value under the same experimental condition [Hans J, Beckmann A, Krüger H J (1999) Eur. J. Inorg. Chem. 163-172—incorporated herein by reference in its entirety]. Conversion to values vs NHE was obtained upon adding +0.24 V to the corresponding SCE values.
The electrochemical behavior of compounds 1, 2 and 3 was investigated in a physiological environment through cyclic voltammetry (CV). […] Gold(III) complexes 1, 2 and 3 show one irreversible reduction process in which the controlled potential coulometry involves three electrons per mole. The occurrence of Au(III)/Au(O) reduction is visually indicated by the appearance of a thin gold layer deposited on the platinum electrode surface after exhaustive electrolysis (Ew, −0.7 V).

[3] = system: human gastric SGC7901 cancer cells; experiment: MTT assay, in vitro cytotoxicity / cell growth inhibition on SGC7901 cells; assay type: cell-based; settings: for time dependent antiproliferative effect: 10 μM, 24 h and 72 h; for pIC50: 72 h exposure, MTT
Description: as §1, §2, §3, §4

[4] = NMR stability in D2O and mixed DMSO-d6/D2O; assay type: physicochemical; settings: DMSO-d6/D2O (v/v 2/1), room temperature, after 7 days
Description: Compounds 1, 2 and 3 were tested for their stability in water as well as mixed solvents of DMSO/water (2/1 v/v ratio) solution by ^13C and ^1H NMR. […] The hydroscopic nature of DMSO could unfortunately lead to stability issue [Ellson R, Stearns R, Mutz M, Brown C, Browning B, Harris D, Qureshi S. Shieh J, Wold D (2005) Comb. Chem. High Throughput Screen, 8:489-498—incorporated herein by reference in its entirety]. To investigate the structural stability of the compounds, NMR spectra of the compounds dissolved in D2O and mixed DMSO-d6/D2O (v/v: 2/1) solvents were obtained on immediate dissolution and latter at 24 h and after three days 72 h at room temperature in mixed DMSO-d6/D2O and at 37° C. in D2O . A minimum of 30 mg/mL of representative gold(III) compounds 1, 2 and 3 were subjected to ^1H and ^13C NMR spectra analysis followed by dissolution in D2O and DMSO-d6/D2O (v/v: 2/1, 1 mL). The duplicate samples were dissolved and immediately stored at room temperature and 37° C., respectively, and followed by determination of stability through NMR measurements for compounds 1, 2 and 3 overtime periods of 24 h and 72 h.
The NMR spectra of the complexes were obtained upon immediate dissolution to serve as reference spectra and later at 24 h and after 7 days at 37° C. in D2O and at room temperature in mixed DMSO-d6/D2O in order to determine their stability. […]

[5] = read-out: IC50 (concentration of sample required to reduce the cell growth of tumor cell line by 50%)
[6] = listed as complex 1, read-out: IC50 (concentration of sample required to reduce the cell growth of tumor cell line by 50%)
[7] = listed as complex 3, read-out: IC50 (concentration of sample required to reduce the cell growth of tumor cell line by 50%)

## NC1CCCCC1N.NCCCN.[Au+3].[Cl-].[Cl-].[Cl-] (racemic) [Complex 2, trans-(±)-1,2-diaminocyclohexane(1,3-propylenediamine)gold(III) chloride]
[1]
  time dependent antiproliferative effect: complex 3>complex 2>complex 1
[1]; [5]
  pIC50: 4.99
[2]
  Peak potential Ep vs. NHE for reduction: 0.25 V
[3]
  time dependent antiproliferative effect: complex 3>complex 2>complex 1
[3]; [5]
  pIC50: 4.96

## N.N.[Cl][Pt][Cl] [Cisplatin, reference compound]
[1]; [5]
  pIC50: 5.96
[3]; [5]
  pIC50: 5.14

## NC1CCCCC1N.NCCCN.[Au+3].[Cl-].[Cl-].[Cl-] (stereo not drawn) [Complex 1, cis-1,2-diaminocyclohexane(1,3-propylenediamine)gold(III) chloride]
[1]; 10 μM and 20 μM, 24 h
  concentration dependent cell growth inhibition: much better cell inhibition against PC3 cancer cell than complexes 3 and 2
[1]; listed as complex 1
  time dependent antiproliferative effect: complex 3>complex 2>complex 1
[1]; [6]
  pIC50: 5.02
[2]; listed as 1
  Peak potential Ep vs. NHE for reduction: 0.34 V
[3]; listed as complex 1
  time dependent antiproliferative effect: complex 3>complex 2>complex 1
[3]; [6]
  pIC50: 4.97

## NC1CCCCC1N.NCCCN.[Au+3].[Cl-].[Cl-].[Cl-] [Complex 3, (S,S)-(+)-1,2-diaminocyclohexane(1,3-propylenediamine)gold(III) chloride]
[1]
  time dependent antiproliferative effect: better cell inhibition against both PC3 and SGC7901 cell lines than complexes 1 and 2
[1]; listed as complex 3
  time dependent antiproliferative effect: complex 3>complex 2>complex 1
[1]; [7]
  pIC50: 5.04
[4]
  dissociation of 1,3-propylenediamine: approximately 50%
[2]; listed as 3
  Peak potential Ep vs. NHE for reduction: 0.24 V
[3]
  time dependent antiproliferative effect: better cell inhibition against both PC3 and SGC7901 cell lines than complexes 1 and 2
[3]; listed as complex 3
  time dependent antiproliferative effect: complex 3>complex 2>complex 1
[3]; [7]
  pIC50: 5.00
